The term Ki denotes a measure of affinity in units of concentration, obtained from inhibition or displacement.

24 compounds from ChEMBL document CHEMBL1138077, “Arylpiperazines with N-acylated amino acids as 5-HT1A receptor ligands” (Bioorg Med Chem Lett, 2006) can be followed below.

The target in the assay is T1, 5-hydroxytryptamine receptor 1A (Homo sapiens, UniProt P08908).
T1 sequence (P08908 whole entry): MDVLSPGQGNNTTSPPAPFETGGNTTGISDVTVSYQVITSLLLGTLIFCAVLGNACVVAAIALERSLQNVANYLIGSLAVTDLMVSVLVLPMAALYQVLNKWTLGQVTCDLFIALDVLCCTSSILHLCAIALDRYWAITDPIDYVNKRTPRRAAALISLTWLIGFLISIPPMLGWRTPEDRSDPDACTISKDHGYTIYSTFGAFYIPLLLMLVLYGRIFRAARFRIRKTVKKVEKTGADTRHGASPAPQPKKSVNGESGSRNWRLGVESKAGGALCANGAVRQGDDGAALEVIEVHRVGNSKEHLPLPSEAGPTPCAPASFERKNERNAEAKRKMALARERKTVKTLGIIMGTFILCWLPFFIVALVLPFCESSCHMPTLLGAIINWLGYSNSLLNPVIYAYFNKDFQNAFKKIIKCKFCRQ
Kind of assay: Affinity for 5HT1A receptor.
The compound `COc1ccccc1N1CCN(CCCCN2C(=O)C[C@@H](NC(=O)CC3CC4CCC3C4)C2=O)CC1` (stereo in doubt; 9'{5,5}) returned a Ki of 17 nM. `COc1ccccc1N1CCN(CCCN2C(=O)C[C@H](NC(=O)c3ccccc3)C2=O)CC1`: the inhibition constant (Ki) amounted to 260 nM. Compared with the last compound, the Ki is about 15-fold higher. The figure for `COc1ccccc1N1CCN(CCCCNC(=O)[C@@H]2CCC(=O)N2C(=O)C2CCCCC2)CC1` is 17 nM; for `COc1ccccc1N1CCN(CCCCN2C(=O)C[C@@H](NC(=O)C34CC5CC(CC(C5)C3)C4)C2=O)CC1` it is 9 nM; for `COc1ccccc1N1CCN(CCCCNC(=O)[C@@H]2CCCN2C(=O)CC2CC3CCC2C3)CC1` (some centres undefined) it is 12 nM. In turn, `COc1ccccc1N1CCN(CCCCNC(=O)[C@H]2CCCN2C(=O)CC2CC3CCC2C3)CC1` (some centres undefined) displayed an inhibition constant (Ki) of 17 nM.

The compound `COc1ccccc1N1CCN(CCCCN2C(=O)C[C@@H](NC(=O)C3CCCCC3)C2=O)CC1` registered a Ki of 17 nM. `COc1ccccc1N1CCN(CCCCNC(=O)[C@@H]2CCC(=O)N2C(=O)CC2CC3CCC2C3)CC1` (some centres undefined) gave a Ki of 12 nM. In the case of `COc1ccccc1N1CCN(CCCCNC(=O)[C@H](CC(N)=O)NC(=O)C2CCCCC2)CC1`, the Ki was 24 nM.

With `COc1ccccc1N1CCN(CCCCN2C(=O)C[C@H](NC(=O)C3CCCC3)C2=O)CC1`, the Ki amounted to 40 nM. In the case of `COc1ccccc1N1CCN(CCCCNC(=O)[C@@H]2CCCN2C(=O)C23CC4CC(CC(C4)C2)C3)CC1`, the Ki was determined as 4 nM. The figure for `COc1ccccc1N1CCN(CCCN2C(=O)C[C@H](NC(=O)C34CC5CC(CC(C5)C3)C4)C2=O)CC1` is 63 nM; for `COc1ccccc1N1CCN(CCCCN2C(=O)C[C@H](NC(=O)C34CC5CC(CC(C5)C3)C4)C2=O)CC1` it is 15 nM; for `COc1ccccc1N1CCN(CCCCN2C(=O)C[C@H](NC(=O)C3CCCCC3)C2=O)CC1` it is 29 nM. With `COc1ccccc1N1CCN(CCCN2C(=O)C[C@H](NC(C)=O)C2=O)CC1`, the inhibitory constant (Ki) amounted to 480 nM.

As to `COc1ccccc1N1CCN(CCCN2C(=O)C[C@H](NC(=O)CC3CC4CCC3C4)C2=O)CC1` (some centres undefined), the Ki came out at 40 nM. In turn, `COc1ccccc1N1CCN(CCCCN2C(=O)C[C@H](NC(=O)CC3CC4CCC3C4)C2=O)CC1` (some centres undefined) displayed a Ki of 18 nM. Take `COc1ccccc1N1CCN(CCCCNC(=O)[C@H]2CCCN2C(=O)C23CC4CC(CC(C4)C2)C3)CC1`: the Ki came out at 25 nM. The figure for `COc1ccccc1N1CCN(CCCN2C(=O)C[C@H](NC(=O)C3CCCCC3)C2=O)CC1` is 230 nM; for `COc1ccccc1N1CCN(CCCCNC(=O)[C@@H]2CCCN2C(=O)C2CCCCC2)CC1` it is 27 nM. With `COc1ccccc1N1CCN(CCCCN2C(=O)C[C@H](NC(C)=O)C2=O)CC1`, the Ki stood at 69 nM. This Ki is about 2.6-fold higher than that of the compound before. The figure for `COc1ccccc1N1CCN(CCCN2C(=O)C[C@H](NC(=O)C3CCCC3)C2=O)CC1` is 170 nM; for `COc1ccccc1N1CCN(CCCCNC(=O)[C@H](CC(N)=O)NC(=O)CC2CC3CCC2C3)CC1` (some centres undefined) it is 11 nM; for `COc1ccccc1N1CCN(CCCCN2C(=O)C[C@H](NC(=O)c3ccccc3)C2=O)CC1` it is 50 nM.
